In ChEMBL document CHEMBL4184094, “Spiro-1-benzofuranpiperidinylalkanoic acids as a novel and selective sphingosine S1P5 receptor agonist chemotype” (Bioorg Med Chem Lett, 2018):
≈ marks a conversion by molar mass, not a printed value. Each block holds one compound with its values, some of them ahead of it.

Tests used:
[1] = target: Sphingosine 1-phosphate receptor 5 (Homo sapiens, UniProt Q9H228); experiment: Agonist activity at human S1P5 receptor expressed in CHO cells assessed as increase in calcium flux by aequorin-derived luminescence assay; assay type: functional, cell-based
Sphingosine 1-phosphate receptor 5, sequence (Q9H228 whole entry): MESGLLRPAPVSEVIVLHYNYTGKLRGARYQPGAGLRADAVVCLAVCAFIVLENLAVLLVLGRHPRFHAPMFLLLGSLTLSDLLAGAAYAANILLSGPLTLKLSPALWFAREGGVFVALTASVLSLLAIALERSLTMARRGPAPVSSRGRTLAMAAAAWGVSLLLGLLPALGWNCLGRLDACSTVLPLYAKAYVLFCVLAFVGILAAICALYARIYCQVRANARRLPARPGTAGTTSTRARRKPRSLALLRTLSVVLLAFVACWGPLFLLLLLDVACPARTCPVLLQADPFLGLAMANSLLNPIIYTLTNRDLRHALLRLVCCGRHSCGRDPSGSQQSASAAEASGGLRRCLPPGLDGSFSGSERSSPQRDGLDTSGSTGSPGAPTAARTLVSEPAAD

[2] = target: Sphingosine 1-phosphate receptor 1 (Homo sapiens, UniProt P21453); experiment: Agonist activity at human S1P1 receptor expressed in CHO cells assessed as increase in calcium flux by aequorin-derived luminescence assay; assay type: functional, cell-based
Sphingosine 1-phosphate receptor 1, sequence (P21453 whole entry): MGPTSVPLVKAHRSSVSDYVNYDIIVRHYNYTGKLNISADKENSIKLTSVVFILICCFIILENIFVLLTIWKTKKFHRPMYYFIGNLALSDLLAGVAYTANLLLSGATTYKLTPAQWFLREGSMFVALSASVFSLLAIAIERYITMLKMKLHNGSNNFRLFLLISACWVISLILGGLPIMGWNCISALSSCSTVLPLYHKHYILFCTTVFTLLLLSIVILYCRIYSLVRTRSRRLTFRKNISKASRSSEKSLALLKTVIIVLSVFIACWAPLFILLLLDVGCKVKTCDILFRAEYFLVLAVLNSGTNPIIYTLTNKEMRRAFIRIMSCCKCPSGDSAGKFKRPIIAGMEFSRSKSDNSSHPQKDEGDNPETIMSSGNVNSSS

[3] = target: Sphingosine 1-phosphate receptor 3 (Homo sapiens, UniProt Q99500); experiment: Agonist activity at human S1P3 receptor expressed in CHO cells assessed as increase in calcium flux by aequorin-derived luminescence assay; assay type: functional, cell-based
Sphingosine 1-phosphate receptor 3, sequence (Q99500 whole entry): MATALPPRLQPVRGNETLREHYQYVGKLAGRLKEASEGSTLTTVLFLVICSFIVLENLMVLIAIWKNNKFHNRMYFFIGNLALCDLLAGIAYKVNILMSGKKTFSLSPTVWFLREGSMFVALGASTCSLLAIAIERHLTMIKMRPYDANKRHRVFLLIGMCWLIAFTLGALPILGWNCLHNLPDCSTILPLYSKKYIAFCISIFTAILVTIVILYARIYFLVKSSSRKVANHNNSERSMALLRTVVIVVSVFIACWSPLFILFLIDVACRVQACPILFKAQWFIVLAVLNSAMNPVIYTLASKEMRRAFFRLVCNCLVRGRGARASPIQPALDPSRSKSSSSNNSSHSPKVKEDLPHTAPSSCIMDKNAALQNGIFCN

[4] = Aqueous kinetic solubility of the compound by turbidimetric method; assay type: physicochemical; settings: buffer; read-out: Kinetic_solubility
[5] = Intrinsic clearance in human microsomes assessed per mg protein; assay type: ADME, Microsome
[6] = Half life in human microsomes assessed per mg protein; assay type: ADME, Microsome
Homo sapiens [7] = species: Homo sapiens; experiment: Selectivity ratio of EC50 for human S1P5 receptor expressed in CHO cells to EC50 for human S1P3 receptor expressed in CHO cells; assay type: cell-based
Homo sapiens [8] = species: Homo sapiens; experiment: Selectivity ratio of EC50 for human S1P5 receptor expressed in CHO cells to EC50 for human S1P1 receptor expressed in CHO cells; assay type: cell-based
[9] = Ratio of drug uptake in CNS to plasma in po dosed rat; assay type: ADME, organism-based; settings: CNS and plasma
[10] = Oral bioavailability in rat; assay type: ADME, organism-based; settings: in vivo

Compound: Cl.O=C(O)CCN1CCC2(CC1)COc1cc(OCc3cc(Cl)nc(Cl)c3)ccc12
EC50 [1]: 316 nM
EC50 [2]: > 31600 nM
EC50 [3]: > 10000 nM
solubility kinetic [4]: > 100 µM
microsomal CLint [5]: 13.9 µL/min/mg
half-life [6]: 1.67 h

Compound: O=C(O)CCN1CCC2(CC1)COc1cc(C#Cc3ccccc3Cl)ccc12
EC50 [1]: 25.1 nM
EC50 [2]: > 31600 nM
EC50 [3]: > 10000 nM
Ratio EC50 (Homo sapiens [7]): 100
Ratio EC50 (Homo sapiens [8]): 1000

Compound: Cl.O=C(O)CCN1CCC2(CC1)COc1c2ccc(OCc2c(Cl)cccc2Cl)c1F
EC50 [1]: 6.31 nM
EC50 [2]: 1000 nM
EC50 [3]: > 10000 nM
solubility kinetic [4]: 30 to 100 µM
microsomal CLint [5]: 6.5 µL/min/mg
half-life [6]: 3.55 h
Ratio EC50 (Homo sapiens [7]): 1000

Compound: CCc1cccc(Cl)c1COc1ccc2c(c1)OCC21CCN(CCC(=O)O)CC1
EC50 [1]: 15.8 nM
EC50 [3]: > 10000 nM
Ratio EC50 (Homo sapiens [7]): 100

Compound: Cl.O=C(O)CCN1CCC2(CC1)COc1cc(OCc3c(Cl)cccc3Cl)ccc12
EC50 [1]: 158 nM
EC50 [2]: 6310 nM
EC50 [3]: > 10000 nM
solubility kinetic [4]: ≥ 100 µM
microsomal CLint [5]: 3.1 µL/min/mg
half-life [6]: 7.45 h
Kp [9]: 0.2

Compound: O=C(O)CCN1CCC2(CC1)COc1cc(OCc3c(Cl)cccc3OC(F)(F)F)ccc12
EC50 [1]: 20 nM
EC50 [2]: 3980 nM

Compound: Cc1cc(Cl)c(COc2ccc3c(c2)OCC32CCN(CCC(=O)O)CC2)c(Cl)c1
EC50 [1]: 7.94 nM
EC50 [2]: 316 nM

EC50 [1]: 100 nM
solubility kinetic [4]: ≥ 100 µM
microsomal CLint [5]: 3.1 µL/min/mg
half-life [6]: 7.57 h
Compound: Cl.O=C(O)CCN1CCCC2(COc3cc(OCc4c(Cl)cccc4Cl)ccc32)C1 (stereo unspecified)
Ratio EC50 (Homo sapiens [7]): 100

Compound: Cl.O=C(O)CCN1CCC2(CC1)COc1cc(/C=C/c3c(Cl)cccc3Cl)ccc12
EC50 [1]: 12.6 nM
EC50 [2]: > 31600 nM
solubility kinetic [4]: 30 to 100 µM
microsomal CLint [5]: 0.76 µL/min/mg
half-life [6]: 30.3 h
bioavailability [10]: 73%
Kp [9]: 0.8

Compound: O=P(O)(O)OCCN1CCC2(CC1)COc1cc(OCc3c(Cl)cccc3Cl)ccc12
EC50 [1]: 20 nM
EC50 [2]: 251 nM
EC50 [3]: > 10000 nM
Ratio EC50 (Homo sapiens [7]): 100

Compound: O=C(O)CCCN1CCC2(CC1)COc1cc(OCc3c(Cl)cccc3Cl)ccc12
EC50 [1]: 15.8 nM
EC50 [2]: 5010 nM
EC50 [3]: 1260 nM

EC50 [1]: 31.6 nM
EC50 [2]: > 31600 nM
EC50 [3]: > 10000 nM
solubility kinetic [4]: ≥ 100 µM
microsomal CLint [5]: 3.4 µL/min/mg
half-life [6]: 6.82 h
Compound: CCc1cccc(Cl)c1COc1ccc2c(c1)OCC21CCCN(CCC(=O)O)C1.Cl (stereo unspecified)
Ratio EC50 (Homo sapiens [7]): 100
Ratio EC50 (Homo sapiens [8]): 1000

Compound: CC(CN1CCC2(CC1)COc1cc(OCc3c(Cl)cccc3Cl)ccc12)C(=O)O (stereo unspecified)
EC50 [1]: 63.1 nM
EC50 [2]: 1260 nM

Compound: Cl.O=C(O)CCN1CCC2(CC1)COc1cc(OCc3c(F)cccc3Cl)ccc12
EC50 [1]: 63.1 nM
EC50 [2]: 6310 nM
solubility kinetic [4]: 30 to 100 µM
microsomal CLint [5]: 2.7 µL/min/mg
half-life [6]: 8.42 h
Ratio EC50 (Homo sapiens [7]): 100

Compound: CCc1cccc(Cl)c1CSc1ccc2c(c1)OCC21CCN(CCC(=O)O)CC1.Cl
EC50 [1]: 2.51 nM
EC50 [2]: 126 nM
EC50 [3]: > 1000 nM
solubility kinetic [4]: 30 to 100 µM
microsomal CLint [5]: 42 µL/min/mg
half-life [6]: 0.55 h
Ratio EC50 (Homo sapiens [7]): 100

Compound: Cl.O=C(O)CN1CCC2(CC1)COc1cc(S(=O)(=O)Cc3c(Cl)cccc3Cl)ccc12
EC50 [1]: 794 nM
EC50 [2]: > 31600 nM
EC50 [3]: > 10000 nM
solubility kinetic [4]: ≥ 100 µM
CL [5]: 33 µL/min
t1/2 [6]: 2.15 h

Compound: O=C(O)C(F)(F)F.O=C(O)CCN1CCC2(CC1)COc1cc(OCc3ccccc3Cl)ccc12
EC50 [1]: 126 nM
EC50 [3]: > 31600 nM
solubility kinetic [4]: 30 to 100 µM
microsomal CLint [5]: 9.1 µL/min/mg
half-life [6]: 2.55 h

Compound: CC(C)c1cccc(Cl)c1COc1ccc2c(c1)OCC21CCN(CCC(=O)O)CC1.Cl
EC50 [1]: 25.1 nM
EC50 [2]: 1260 nM
EC50 [3]: > 10000 nM
solubility kinetic [4]: 30 to 100 µM
microsomal CLint [5]: 2.1 µL/min/mg
half-life [6]: 11.2 h
Ratio EC50 (Homo sapiens [7]): 100

Compound: O=C(O)CCN1CCC2(CC1)COc1cc(OCc3cccc(Cl)c3Cl)ccc12
EC50 [1]: 200 nM
EC50 [2]: 1580 nM
EC50 [3]: > 10000 nM

Compound: CCc1cccc(CC)c1COc1ccc2c(c1)OCC21CCN(CCC(=O)O)CC1
EC50 [1]: 20 nM
EC50 [2]: 1580 nM
EC50 [3]: 1580 nM
solubility kinetic [4]: ≥ 100 µM
microsomal CLint [5]: 0.92 µL/min/mg
half-life [6]: 25.2 h

Compound: O=C(O)CCN1CCC2(CC1)COc1cc(OCc3ccccc3)ccc12
EC50 [1]: 1000 nM
EC50 [2]: > 31600 nM
EC50 [3]: > 10000 nM

Compound: Cl.O=C(O)CCN1CCC2(CC1)COc1cc(SCc3c(Cl)cccc3Cl)ccc12
EC50 [1]: 12.6 nM
EC50 [2]: > 10000 nM
EC50 [3]: 3980 nM
solubility kinetic [4]: ≥ 100 µM
microsomal CLint [5]: 21 µL/min/mg
half-life [6]: 1.08 h
Ratio EC50 (Homo sapiens [7]): 100
Ratio EC50 (Homo sapiens [8]): 1000

EC50 [1]: 3160 nM
EC50 [3]: 2510 nM
solubility kinetic [4]: 1 to 6.5 µM (≈ 0.307 to 2 µg/mL)
Compound: CCCCCCCCc1ccc(CCC(N)(CO)CO)cc1 [FINGOLIMOD]

Compound: O=C(O)CN1CCC2(CC1)COc1cc(OCc3c(Cl)cccc3Cl)ccc12
EC50 [1]: 31.6 nM
EC50 [2]: 6310 nM
EC50 [3]: > 1000 nM
Ratio EC50 (Homo sapiens [7]): 100

Compound: O=C(O)CCN1CCC2(CC1)COc1cc(OCCCc3ccccc3)ccc12
EC50 [1]: 2000 nM
EC50 [2]: 5010 nM
EC50 [3]: 1580 nM

Compound: Cl.O=C(O)CCN1CCC2(CC1)COc1cc(C#Cc3ccccc3)ccc12
EC50 [1]: 39.8 nM
solubility kinetic [4]: 100 µM
microsomal CLint [5]: 8.3 µL/min/mg
half-life [6]: 2.78 h

Compound: CCc1cccc(Cl)c1COc1ccc2c(c1)OCC21CCN(CC(C)C(=O)O)CC1.Cl (stereo unspecified)
EC50 [1]: 15.8 nM
EC50 [2]: 316 nM
EC50 [3]: > 10000 nM
solubility kinetic [4]: ≥ 100 µM
microsomal CLint [5]: 6.1 µL/min/mg
half-life [6]: 3.8 h
Ratio EC50 (Homo sapiens [7]): 100

Compound: O=C(O)CCN1CCC2(CC1)COc1cc(OCc3cccc(Cl)c3)ccc12
EC50 [1]: 316 nM
EC50 [2]: > 10000 nM
EC50 [3]: > 10000 nM

Compound: CCCc1cccc(Cl)c1COc1ccc2c(c1)OCC21CCN(CCC(=O)O)CC1
EC50 [1]: 15.8 nM
EC50 [2]: 2000 nM
EC50 [3]: 2000 nM
Ratio EC50 (Homo sapiens [7]): 100

Compound: O=C(O)CCN1CCC2(CC1)COc1cc(OCc3cc(Cl)ccc3Cl)ccc12
EC50 [1]: 200 nM
EC50 [2]: 12600 nM
EC50 [3]: 1000 nM

Compound: O=C(O)CCN1CCC2(CC1)COc1cc(OCc3c(Cl)cccc3C(F)(F)F)ccc12
EC50 [1]: 126 nM
EC50 [2]: 316 nM
EC50 [3]: > 10000 nM
